Assay results taken from patent US8993585B2, “Cyclic amine substituted pyrimidinediamines as PKC inhibitors” (Rigel Pharmaceuticals, Inc., priority 2007, dated 2015).

System: Human primary T cells
Assay: IL-2 ELISA, Human Primary T Cell, Anti-CD3+CD28+ (Example 3)
Format: cell-based
Conditions: anti-CD3+CD28 stimulation
Method: Human primary T cell isolation and culture: Human primary T cells were prepared as follows. […] The cells at the serum:ficoll interface were recovered and washed twice with 5 volumes of PBS. […] The primary T-cells were then washed twice with PBS to remove the IL-2.
Primary T cell stimulation and IL2 ELISA: Human primary T cells (100,000 cells per well) were pre-incubated with or without test compound in Yssel's medium for 1 hr at 37° C. Cells were then stimulated by transferring them to round-bottom 96-well plates pre-coated with 1 ug/ml αCD3 and 5 μg/ml αCD28. For counter assay, cells were instead stimulated by adding 8× stock solutions of PMA and ionomycin in Yssels (for final concentrations of 0.5 ng/ml PMA and 0.1 uM ionomycin, both from Calbiochem).

| Compound | IC50 (Homo sapiens, T-cell, 24 h) [nM] | IC50 (24 hours) [nM] |
| --- | --- | --- |
| COc1cc(Nc2ncc(F)c(NC3CC(C)(C)NC(C)(C)C3)n2)cc(OCCn2cccc2)c1 [Compound I-438] | 300 | – |
| CCCN1C(C)CN(c2cc(Nc3ncc(F)c(NC4CC(C)(C)N(C)C(C)(C)C4)n3)ccc2Cl)CC1C (centres unmarked) [Compound I-220] | – | 1050 |
| CN1CCN(c2ccc(Nc3ncc(F)c(NC4CC(C)(C)N(C)C(C)(C)C4)n3)cc2CO)CC1 [Compound I-63] | – | 1850 |
| CN1C(C)(C)CC(Nc2nc(Nc3ccc4c(c3)OCCCO4)ncc2F)CC1(C)C [II-43] | 1470 | – |
| COc1ccc(Nc2ncc(F)c(NC3CC(C)(C)N(C)C(C)(C)C3)n2)cc1-c1ccncc1 [Compound I-193] | – | 653 |
| COc1c(C)cc(Nc2ncc(F)c(NC3CC(C)(C)N(C)C(C)(C)C3)n2)cc1C [Compound I-131] | – | 629 |
| CCN1C(=O)COc2cc(Nc3ncc(C#N)c(NC4CC(C)(C)N(C)C(C)(C)C4)n3)ccc21 [II-71] | 145 | – |
| CN1CCN(c2ccc(Nc3ncc([N+](=O)[O-])c(NC4CC(C)(C)N(C)C(C)(C)C4)n3)cc2C(F)(F)F)CC1 [Compound I-74] | – | 657 |
| CC(C)N1C(=O)C(C)(C)S(=O)(=O)c2cc(Nc3ncc(F)c(NC4CC(C)(C)N(C)C(C)(C)C4)n3)ccc21 [II-67] | – | 811 |
| Cc1cnc(Nc2ccc3c(c2)OCCO3)nc1NC1CC(C)(C)N(C)C(C)(C)C1 [II-146] | 3130 | – |
| CN1C(C)(C)CC(Nc2nc(Nc3ccc(F)c(F)c3)ncc2F)CC1(C)C [Compound I-21] | – | 414 |
| COc1ccc(Nc2ncc(F)c(NC3CCN(C)CC3)n2)cc1Cl [III-1, N2-(3-Chloro-4-methoxy)phenyl-5-fluoro-N4-(1-methylpiperidin-4-yl)-2,4-pyrimidinediamine] | – | 2380 |
| COc1cc(Nc2ncc(C(N)=O)c(NC3CC(C)(C)N(C)C(C)(C)C3)n2)cc(-n2cnnn2)c1 [Compound I-390] | – | 680 |
| 5-Fluoro-N2-(4-methyl-cyano)phenyl-N4-(1,2,2,5,5-pentamethylpyrrolidin-3-yl)-2,4-pyrimidinediamine [Compound I-278] | – | 1280 |
| CN1C(C)(C)CC(Nc2nc(Nc3ccc(N4CCN(S(C)(=O)=O)CC4)c(Cl)c3)ncc2C(N)=O)CC1(C)C [Compound I-91] | – | 3910 |
| CN1C(C)(C)CC(Nc2nc(Nc3cnc(N4CCOCC4)c(Cl)c3)ncc2F)CC1(C)C [Compound I-290] | – | 596 |
| COCCOc1cc(Nc2ncc(F)c(NC3CC(C)(C)N(C)C(C)(C)C3)n2)ccc1OC [Compound I-413] | – | 6150 |
| COc1cc(Nc2ncc(F)c(NC3CC(C)(C)NC(C)(C)C3)n2)cc(OC)c1 [Compound I-371] | – | 550 |
| COc1ccc(Nc2ncc(F)c(NC3CC(C)(C)N(C)C(C)(C)C3)n2)cn1 [Compound I-345] | 5320 | – |
| CN1C(C)(C)CC(Nc2nc(Nc3ccc(NC(=O)c4ccccc4)cc3)ncc2F)CC1(C)C [Compound I-133] | – | 1130 |
| CN1C(C)(C)CC(Nc2nc(Nc3ccc4c(c3)oc(=O)n4C)ncc2F)CC1(C)C [II-36] | 678 | – |
| CN1CCN(c2ccc(Nc3ncc(C(N)=O)c(NC4CC(C)(C)N(C)C(C)(C)C4)n3)cc2Cl)CC1 [Compound I-98] | – | 1070 |
| COc1ccc(Nc2ncc(C(N)=O)c(NC3CC(C)(C)N(C)C(C)(C)C3)n2)cc1Cl [Compound I-85] | – | 631 |

| Compound | IC50 (Homo sapiens, T-cell, 24 h) [nM] | IC50 (24 hours) [nM] |
| --- | --- | --- |
| CC(C)OC(=O)Nc1ccc(Nc2ncc(F)c(NC3CC(C)(C)N(C)C(C)(C)C3)n2)cc1 [Compound I-137] | – | 1640 |
| CN1C(C)(C)CC(Nc2nc(Nc3ccc(NCc4ccccc4)cn3)ncc2F)CC1(C)C [II-85] | 3660 | – |
| CCn1c(=O)oc2cc(Nc3ncc(F)c(NC4CC(C)(C)N(C)C(C)(C)C4)n3)ccc21 [II-46] | 391 | – |
| CCN1C(=O)C(C)(C)S(=O)(=O)c2cc(Nc3ncc(F)c(NC4CC(C)(C)N(C)C(C)(C)C4)n3)ccc21 [II-66] | – | 695 |
| CN1CCN(c2ccc(Nc3ncc(Cl)c(NC4CC(C)(C)N(C)C(C)(C)C4)n3)cc2C(F)(F)F)CC1 [Compound I-37] | – | 511 |
| CCOC(=O)c1cnc(Nc2cccc(C#N)c2)nc1NC1CC(C)(C)N(C)C(C)(C)C1 [Compound I-81] | – | 28600 |
| COCCOc1cc(Nc2ncc(F)c(NC3CC(C)(C)NC(C)(C)C3)n2)cc(OCCOC)c1 [Compound I-394] | – | 2960 |
| CN1C(C)(C)CC(Nc2nc(Nc3ccc(N4CCN(S(C)(=O)=O)CC4)c(Cl)c3)ncc2F)CC1(C)C [Compound I-61] | – | 94 |
| CN1C(C)(C)CC(Nc2nc(Nc3ccc4c(c3)OC(C)(C)C(=O)N4CCF)ncc2F)CC1(C)C [II-80] | 199 | – |
| COc1cc(Nc2ncc(F)c(NC3CC(C)(C)N(C)C(C)(C)C3)n2)cc(-n2nnnc2C)c1 [Compound I-358] | 29.5 | – |
| CN1C(C)(C)CC(Nc2nc(Nc3ccc(F)c(Cl)c3)ncc2F)CC1(C)C [Compound I-333] | – | 586 |
| CN1C(=O)C(C)(C)S(=O)(=O)c2cc(Nc3ncc(F)c(NC4CC(C)(C)N(C)C(C)(C)C4)n3)ccc21 [II-64] | – | 849 |
| CC(C)n1c(=O)oc2cc(Nc3ncc(C#N)c(NC4CC(C)(C)NC(C)(C)C4)n3)ccc21 [II-162] | 1130 | – |
| COCCOc1cc(Nc2ncc(F)c(NC3CC(C)(C)N(C)C(C)(C)C3)n2)cc(OCCOC)c1 [Compound I-385] | – | 1180 |
| COc1cc(Nc2ncc(OC)c(NC3CC(C)(C)N(C)C(C)(C)C3)n2)cc(-n2nnnc2C)c1 [Compound I-424] | 1010 | – |
| CN1C(C)(C)CC(Nc2nc(Nc3ccc(F)c(-n4cnnn4)c3)ncc2F)CC1(C)C [Compound I-466] | – | 240 |
| CN1C(C)(C)CC(N(Cc2ccc(-c3ccccc3C#N)cc2)c2nc(Nc3ccc4c(c3)OCCO4)ncc2F)CC1(C)C [II-91] | 3860 | – |
| CN1C(C)(C)CC(Nc2nc(Nc3ccc4c(c3)OC(C)(C)C(=O)N4CCF)ncc2C#N)CC1(C)C [II-79] | 152 | – |
| CC1(C)CC(Nc2nc(Nc3cc(Cl)cc(Cl)c3)ncc2F)CC(C)(C)N1CCC(=O)O [Compound I-304] | 9510 | – |
| COc1cc(Nc2ncc(C#N)c(NC3CC(C)(C)N(C)C(C)(C)C3)n2)cc(-n2cnnn2)c1 [Compound I-404] | – | 170 |
| CN1C(C)(C)CC(Nc2nc(Nc3cc(-c4cccnc4)cc(C(F)(F)F)c3)ncc2F)CC1(C)C [Compound I-202] | – | 615 |
| CN1C(C)(C)CC(Nc2nc(Nc3ccc(-c4cc5ccccc5s4)c(C(F)(F)F)c3)ncc2F)CC1(C)C [Compound I-114] | – | 1880 |
| CN1C(C)(C)CC(Nc2nc(Nc3nc4ccc([N+](=O)[O-])cc4s3)ncc2F)CC1(C)C [II-17] | 845 | – |

| Compound | IC50 (Homo sapiens, T-cell, 24 h) [nM] | IC50 (24 hours) [nM] |
| --- | --- | --- |
| CN1CCN(c2ccc(Nc3ncc(F)c(NC4CCN(CCO)CC4)n3)cc2Cl)CC1 [III-8, N2-[3-Chloro-4-(4-methylpiperazino)]phenyl-5-fluoro-N4-[1-(2-hydroxyethyl)piperidin-4-yl]-2,4-pyrimidinediamine] | – | 2610 |
| CCN1C(=O)C(C)(C)Oc2cc(Nc3ncc(C#N)c(NC4CC(C)(C)NC(C)(C)C4)n3)ccc21 [II-57] | 147 | – |
| COc1cc(Nc2ncc(F)c(N(Cc3cc4c(cc3Br)OCO4)C3CC(C)(C)N(C)C(C)(C)C3)n2)cc(OC)c1 [Compound I-323] | 4710 | – |
| COc1cc(Nc2ncc(C)c(NC3CC(C)(C)N(C)C(C)(C)C3)n2)cc(OC)c1OC [Compound I-16] | – | 5280 |
| COc1ccc(Nc2ncc(F)c(NC3CC(C)(C)N(CCC(=O)O)C(C)(C)C3)n2)cc1C(F)(F)F [Compound I-305] | – | 17900 |
| CN1C(C)(C)CC(Nc2nc(Nc3cccc(C#N)c3)ncc2[N+](=O)[O-])CC1(C)C [Compound I-72] | – | 992 |
| CCCN1C(=O)COc2cc(Nc3ncc(C#N)c(NC4CC(C)(C)N(C)C(C)(C)C4)n3)ccc21 [II-72] | 168 | – |
| CN1C(C)(C)CC(Nc2nc(Nc3cccc(NS(C)(=O)=O)c3)ncc2F)CC1(C)C [Compound I-243] | – | 684 |
| CC(C)N1CCc2cc(Nc3ncc(F)c(NC4CC(C)(C)N(C)C(C)(C)C4)n3)ccc21 [II-53] | 4740 | – |
| CC1(C)CC(Nc2nc(Nc3cccc(-n4cnnn4)c3)ncc2C#N)CC(C)(C)N1 [Compound I-393] | – | 430 |
| CCNC(=O)Nc1ccc(Nc2ncc(F)c(NC3CC(C)(C)N(C)C(C)(C)C3)n2)cc1 [Compound I-149] | – | 4360 |
| CC1(C)CC(Nc2nc(Nc3ccc4c(c3)oc(=O)n4CCN3CCOCC3)ncc2C#N)CC(C)(C)N1 [II-170] | 15800 | – |
| CN1C(C)(C)CC(Nc2nc(Nc3ccc4c(c3)OC3(CCCCC3)O4)ncc2F)CC1(C)C [II-114] | 2630 | – |
| COc1cc(Nc2ncc(F)c(NC3CC(C)(C)N(C)C(C)(C)C3)n2)cc(C(F)(F)F)c1 [Compound I-145] | – | 897 |
| CC1(C)CC(Nc2nc(Nc3cc(OCC(F)(F)F)cc(OCC(F)(F)F)c3)ncc2C#N)CC(C)(C)N1 [Compound I-419] | – | 270 |
| CN1C(C)(C)CC(Nc2nc(Nc3ccc(C(=O)NC4CC4)c(C(F)(F)F)c3)ncc2F)CC1(C)C [Compound I-230] | – | 1090 |
| COc1cc(C)c(Nc2ncc(F)c(NC3CC(C)(C)NC(C)(C)C3)n2)cc1OC [Compound I-379] | – | 34500 |
| CN1CCN(c2ccc(Nc3ncc(F)c(NC4CC(C)(C)NC(C)(C)C4)n3)cc2C(F)(F)F)CC1 [Compound I-255] | – | 236 |
| CN1CCN(c2ccc(Nc3ncc(F)c(NC4CC(C)(C)NC(C)(C)C4)n3)cc2Cl)CC1 [Compound I-256] | – | 246 |
| CN1C(C)(C)CC(N(Cc2ccccc2)c2nc(Nc3ccc(N4CCN(S(C)(=O)=O)CC4)c(C(F)(F)F)c3)ncc2F)CC1(C)C [Compound I-310] | 1410 | – |
| CN1C(C)(C)CC(Nc2nc(Nc3ccc(N4CCC(F)(F)CC4)c(F)c3)ncc2F)CC1(C)C [Compound I-51] | – | 1010 |
| C#Cc1cnc(Nc2ccc3c(c2)OCCO3)nc1NC1CC(C)(C)N(C)C(C)(C)C1 [II-156] | 5930 | – |
